Assay results from patent publication US7662851B2, “Use of specific cyklolignans” (Axelar AB, priority 2001, dated 2010).
Values after ≈ are worked out from the molar mass of the structure shown. Where two headings read alike, the source gives them in different places.

What was measured:
[1] = system: microtubule polymerisation; conditions: cited from earlier work
[2] = system: ES-1 (Ewing's sarcoma cells) xenografts; assay: Tumor growth of ES-1 xenografts in nude mice; assay type: in vivo; conditions: 28 mg/kg i.p. daily 4-6 days, then 4-6 days without treatment, FIG. 6
Procedure: Control mice were treated with the solvent. 3-6 animals were treated in each group.
Because of the toxicity of podophyllotoxin and deoxypodophyllotoxin, we only used picropodophyllin to analyze effects on tumor xenografts. For this purpose ES-1 (Ewing's sarcoma cells) and BE (melanoma cells) xenografts were established in nude mice. When the ES-1 and BE tumors started growing subcutaneously and were measurable, mice were treated daily with intraperitoneal injections of picropodophyllin (28 mg/kg, which was required for giving an average concentration above 0.05 μM of picropodophyllin in the blood plasma) or 80% DMSO in saline as a carrier for 4-6 days, followed by 4-6 days without treatment. The mice were then killed and the tumors analyzed by an experienced pathologist.

[3] = system: SK-MEL-5 melanoma cell line; assay: Cell viability (XTT), SK-MEL-5; assay type: cell-based
Procedure: (§1) Cell proliferation kit II (Roche Inc.) is based on colorimetric change of the yellow tetrazolium salt XTT in orange formazan dye by the respiratory chain of viable cells (Roehm, N W, et al., J Immunol Methods 142:257-265, 1991). Cells seeded at a concentration of 5000/well in 100 μl medium in a 96-well plate were treated with different drugs in the given concentration. After 24 or 48 h the cells were incubated, according to the manufacturer's protocol, with XTT labelling mixture. After 4 h the formazan dye is quantified using a scanning multiwell spectrophotometer with a 495-nm filter. The absorbance is directly correlated with the number of viable cells. The standard absorbance curve was drawn by means of untreated cells seeded at a concentration of from 1000 to 10 000 cells/well with an increasing rate of 1000 cells/well. All standards and experiments were performed in triplicates.
(§2) 12 different types of cell lines were seeded in 96-well plates (medium volume in a well was 100 μl), at a concentration of 10,000 cells/cm^2 in Minimal Essential Medium supplemented with fetal calf serum. When the cells had reached a concentration of 65,000 cells/cm^2, they were treated with different doses of podophyllotoxin and picropodophyllin for 48 h. Cell viability was then assayed (see above). […]

HepG2 hepatoma cell line = assay: Cell viability (XTT), HepG2; assay type: cell-based
Procedure: as §1, §2

[4] = rats; cited from earlier work
IGF-1R = IGF-1R (Homo sapiens, UniProt P08069); assay: In vitro tyrosine kinase assay: IGF-1R-catalyzed substrate phosphorylation of polyTyrGlu (pTG), cell-free; assay type: biochemical; parameters: expressed in transfected cells; host or cells: P6 cell line (murine fibroblasts overexpressing human IGF-1R); receptor captured on plates with an antibody to the beta subunit; conditions: FIG. 3
Sequence of IGF-1R (P08069 31-1367): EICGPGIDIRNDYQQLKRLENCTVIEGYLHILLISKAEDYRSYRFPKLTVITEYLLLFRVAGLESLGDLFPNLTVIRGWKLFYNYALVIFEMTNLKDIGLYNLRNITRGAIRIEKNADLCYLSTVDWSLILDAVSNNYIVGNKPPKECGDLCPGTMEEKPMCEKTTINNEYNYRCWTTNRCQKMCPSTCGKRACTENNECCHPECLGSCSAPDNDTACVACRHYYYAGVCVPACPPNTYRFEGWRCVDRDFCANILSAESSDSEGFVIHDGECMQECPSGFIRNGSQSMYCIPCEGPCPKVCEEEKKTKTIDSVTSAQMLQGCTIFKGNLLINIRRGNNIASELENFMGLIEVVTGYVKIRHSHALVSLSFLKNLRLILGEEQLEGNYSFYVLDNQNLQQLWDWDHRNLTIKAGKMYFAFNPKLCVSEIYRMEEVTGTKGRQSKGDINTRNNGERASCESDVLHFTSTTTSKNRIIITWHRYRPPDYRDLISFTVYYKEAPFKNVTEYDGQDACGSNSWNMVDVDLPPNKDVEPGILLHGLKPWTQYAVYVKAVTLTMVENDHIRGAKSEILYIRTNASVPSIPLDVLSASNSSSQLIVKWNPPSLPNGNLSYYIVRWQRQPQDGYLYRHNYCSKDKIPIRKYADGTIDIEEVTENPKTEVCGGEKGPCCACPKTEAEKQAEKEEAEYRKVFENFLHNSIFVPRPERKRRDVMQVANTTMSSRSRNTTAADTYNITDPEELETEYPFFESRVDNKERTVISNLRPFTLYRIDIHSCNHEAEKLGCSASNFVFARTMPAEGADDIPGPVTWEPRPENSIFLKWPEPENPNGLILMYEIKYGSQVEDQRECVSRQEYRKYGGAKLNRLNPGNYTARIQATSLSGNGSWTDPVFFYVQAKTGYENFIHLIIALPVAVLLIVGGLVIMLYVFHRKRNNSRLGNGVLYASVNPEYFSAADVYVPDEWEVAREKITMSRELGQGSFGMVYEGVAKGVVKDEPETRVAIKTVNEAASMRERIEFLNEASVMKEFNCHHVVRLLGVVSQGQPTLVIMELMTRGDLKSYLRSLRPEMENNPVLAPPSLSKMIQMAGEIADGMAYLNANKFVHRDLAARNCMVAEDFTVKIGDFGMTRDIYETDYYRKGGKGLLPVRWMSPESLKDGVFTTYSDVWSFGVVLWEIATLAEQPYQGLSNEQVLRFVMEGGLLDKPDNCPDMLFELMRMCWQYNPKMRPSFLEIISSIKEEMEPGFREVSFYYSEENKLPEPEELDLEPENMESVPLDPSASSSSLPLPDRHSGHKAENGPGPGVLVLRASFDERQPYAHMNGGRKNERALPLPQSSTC
Procedure: (§3) IGF-1R-catalyzed substrate phosphorylation of polyTyrGlu (pTG) was performed essentially as previously described [Parrizas M., et al., ibid., and Blum G., et al., ibid.]. Immunoprecipitated IR from HepG2, IGF-1R from P6 cell extract and immunodepleted supernatant to assay non-IGF-1R tyrosine kinases. The phosphorylated polymer substrate was probed with a purified phosphotyrosine specific monoclonal antibody conjugated to horseradish peroxidase (HARP). Color was developed with HRP chromogenic substrate o-phenylene-diamine dihydrochloride (OPD). The color was quantitated by spectrophotometry (ELISA reader) and reflects the relative amount of tyrosine kinase. The precipitate was immunoblotted with anti-bodies to IGF-1R and IR to verify the presence of the receptor. Serial dilutions were used to assay the optimal conditions with respect to the amount of IGF-1R and IR. The signal was linear for 30 minutes and was a function of IGF-1R concentration up to 75 ng/well. […] After spectrophotometry the IC50 values of inhibitors were determined using the Regression function of Statistica program.
(§4) Therefore we isolated the receptor and determined the effects of picropodophyllin on IGF-1R catalyzed substrate tyrosine phosphorylation and IGF-1R autophosphorylation in-vitro.

IR tyrosine kinase = biological target: T1, IR tyrosine kinase (Homo sapiens, UniProt P06213); assay: In vitro tyrosine kinase assay: substrate phosphorylation by IR, cell-free; assay type: biochemical; conditions: FIG. 3
T1 construct: Immunoprecipitated IR from HepG2; endogenous in cells; host or cells: HepG2 hepatoma cells (immunoprecipitate)
T1 sequence (P06213 28-1382): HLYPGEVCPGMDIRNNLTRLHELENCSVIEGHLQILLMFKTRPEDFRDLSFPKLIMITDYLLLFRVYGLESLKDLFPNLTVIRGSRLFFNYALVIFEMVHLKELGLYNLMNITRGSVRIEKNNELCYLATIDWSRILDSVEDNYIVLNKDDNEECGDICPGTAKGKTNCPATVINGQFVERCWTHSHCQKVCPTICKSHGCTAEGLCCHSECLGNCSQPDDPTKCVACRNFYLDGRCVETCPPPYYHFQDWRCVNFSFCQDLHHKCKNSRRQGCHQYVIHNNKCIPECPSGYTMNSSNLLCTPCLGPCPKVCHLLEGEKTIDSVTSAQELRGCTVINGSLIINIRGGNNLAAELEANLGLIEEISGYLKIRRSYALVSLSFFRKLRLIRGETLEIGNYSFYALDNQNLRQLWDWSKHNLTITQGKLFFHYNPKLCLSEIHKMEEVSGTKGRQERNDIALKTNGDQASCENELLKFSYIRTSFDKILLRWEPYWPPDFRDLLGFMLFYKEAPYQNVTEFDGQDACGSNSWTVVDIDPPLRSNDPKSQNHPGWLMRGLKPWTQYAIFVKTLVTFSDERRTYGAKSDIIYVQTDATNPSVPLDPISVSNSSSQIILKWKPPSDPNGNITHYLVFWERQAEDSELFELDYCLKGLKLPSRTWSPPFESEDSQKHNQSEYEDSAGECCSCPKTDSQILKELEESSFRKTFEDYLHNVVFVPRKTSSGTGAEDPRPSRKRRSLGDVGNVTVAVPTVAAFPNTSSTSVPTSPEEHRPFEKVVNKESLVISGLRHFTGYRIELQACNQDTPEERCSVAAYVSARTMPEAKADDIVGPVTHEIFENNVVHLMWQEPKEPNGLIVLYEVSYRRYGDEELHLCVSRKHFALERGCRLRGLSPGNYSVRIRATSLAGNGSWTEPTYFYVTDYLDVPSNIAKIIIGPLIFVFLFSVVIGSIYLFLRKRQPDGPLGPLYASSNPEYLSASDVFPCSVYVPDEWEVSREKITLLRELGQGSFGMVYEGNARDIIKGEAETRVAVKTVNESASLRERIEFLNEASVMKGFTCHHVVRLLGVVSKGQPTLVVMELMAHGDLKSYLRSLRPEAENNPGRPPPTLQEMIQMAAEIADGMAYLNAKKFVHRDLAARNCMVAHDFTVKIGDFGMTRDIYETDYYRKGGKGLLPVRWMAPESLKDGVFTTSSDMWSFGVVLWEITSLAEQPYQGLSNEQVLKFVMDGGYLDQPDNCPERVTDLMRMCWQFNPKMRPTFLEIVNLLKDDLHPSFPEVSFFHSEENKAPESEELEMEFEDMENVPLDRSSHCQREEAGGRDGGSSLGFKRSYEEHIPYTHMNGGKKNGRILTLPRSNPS
Procedure: as §3, §4

[5] = system: R- cells (IGF-1R negative fibroblasts); assay: Cell viability (XTT), R-; assay type: cell-based, murine; conditions: Mus musculus, Fibroblast, 48 h, read-out: EC50 for cell viability
Procedure: as §1, §2

[6] = system: SK-MEL-28 melanoma cell line; assay: Cell viability (XTT), SK-MEL-28; assay type: cell-based
Procedure: as §1, §2

non-IGF-1R kinases = assay: In vitro tyrosine kinase assay: non-IGF-1R kinases (IGF-1R-immunodepleted supernatant); assay type: biochemical; conditions: cell-free, FIG. 3
Procedure: as §3, §4

Water solubility = assay type: physicochemical
[7] = system: BE malignant melanoma cell line; assay: Cell viability (XTT), BE; assay type: cell-based; conditions: 48 h
Procedure: as §1, §2

[8] = system: SK-MEL-2 melanoma cell line; assay: Cell viability (XTT, Cell proliferation kit II), SK-MEL-2; assay type: cell-based; conditions: Homo sapiens, SK-MEL-2, 48 h
Procedure: as §1, §2

COc1cc([C@@H]2c3cc4c(cc3[C@H](O)[C@H]3COC(=O)[C@@H]23)OCO4)cc(OC)c1OC [Picropodophyllin, picropodophyllin]
Fold lower inhibitory effect on microtubule polymerisation than podophyllotoxin [1]: 50 fold
Effect on tumor growth [2]: significantly inhibited growth
EC50 ([3]; Homo sapiens, SK-MEL-5, 48 h; read-out: EC50 for cell viability): 50 nM
EC50 (HepG2 hepatoma cell line; Homo sapiens, HepG2, 48 h; read-out: EC50 for cell viability): > 15000 nM
Fold higher LD50 than podophyllotoxin [4]: more than 35 fold
IC50 (IGF-1R): 6 nM
Interference with substrate phosphorylation of IR tyrosine kinase (IR tyrosine kinase): failed to interfere
EC50 ([5]; R- (IGF-1R negative fibroblasts)): > 15000 nM
EC50 ([6]; Homo sapiens, SK-MEL-28, 48 h; read-out: EC50 for cell viability): 30 nM
Interference with substrate phosphorylation of other non-IGF-1R kinases (non-IGF-1R kinases): failed to interfere

COc1cc([C@@H]2c3cc4c(cc3[C@H](O)[C@H]3COC(=O)[C@H]23)OCO4)cc(OC)c1OC [Podophyllotoxin, podophyllotoxin]
EC50 ([3]; Homo sapiens, SK-MEL-5, 48 h, read-out: EC50 for cell viability): 20 nM
EC50 (HepG2 hepatoma cell line; Homo sapiens, HepG2, 48 h, read-out: EC50 for cell viability): > 15000 nM
solubility (Water solubility): 100 to 200 µM (≈ 41.4 to 82.9 µg/mL)
EC50 [7]: 50 nM
EC50 [8]: 50 nM
EC50 [5]: > 15000 nM
EC50 ([6]; Homo sapiens, SK-MEL-28, 48 h, read-out: EC50 for cell viability): 20 nM
